Patent US6506936B1, “N-substituted arylsulfonylamino hydroxamic acids useful as inhibitors of c-proteinase and for treating or preventing disorders related to unregulated collagen production” (FibroGen, Inc., priority 1999, dated 2003)

test system: human foreskin fibroblasts; test: Cytotoxicity: metabolic activity (WST-1) of quiescent fibroblasts exposed to inhibitor; type: cell-based; conditions: 25 μM compound, 0.5% DMSO, 48 hours, 60% or below = very sick or dead
Description: C-proteinase inhibitors were studied in cytotoxicity assays wherein quiescent cells were exposed to C-proteinase inhibitors for a given time and cell viability measured. By examining cellular metabolic activity, cell viability and cell survival were determined.
C-proteinase inhibitors were tested on human foreskin fibroblasts that had been grown to confluence in 96 well microtiter plates in Dulbecco's Modified Eagle Medium (DMEM) containing 10% fetal calf serum. Shortly before adding the inhibitors, the media was removed and 90 μl per microtiter well of fresh serum-free DMEM was added to the cells. The C-proteinase inhibitors were made up as concentrated stocks containing compound at 250 μM in the presence of 5% DMSO as solvent. A concentrated stock of 10 μl was added to each microtiter well to give a final compound concentration of 25 μM in the presence of 0.5% DMSO. The cells were incubated in the presence of the C-proteinase inhibitor for 48 hours, and then cell viability and survival were measured as a function of metabolic activity. To examine cellular metabolic activity, 10 μl of WST-1 reagent (Boehringer Mannheim) was added to each well of a 96 well microtiter plate containing quiescent cells that were already in media. The plate was incubated at 37° C. for 120 minutes and removed. The absorbance at 450 nm-650 nm was recorded. […] Controls included untreated healthy cells, and cells killed with 0.1% saponin.
Cytotoxicity was evaluated as a function of cellular survival. Cellular survival was determined by measuring the metabolic activity of the quiescent cells after exposure to the C-proteinase inhibitors. To determine the metabolic activity of the cells, the color change of a trazolium dye over time was examined according to Mossmann, […], Immunol. Methods 65:66; Carmichael, 1987, Cancer Res 47:936, incorporated herein by reference. Healthy cells cleaved the dye producing a colored product that can be quantitated. […] Dead cells had no metabolic activity and no effect on the dye was shown.
The amount of dye cleaved by cells that had been incubated with inhibitor, expressed as a percentage relative to untreated cells, is shown in TABLE 2. Cells that register at 60% or below are considered either very sick or dead. Control cells that were intentionally killed give a value of close to 20%.

First: CCCCOc1ccc(S(=O)(=O)N(CCC(=O)NO)CCc2cccs2)cc1 [Compound 1416]
Second: CS(=O)(=O)c1ccc(S(=O)(=O)N(CCC(=O)NO)CCc2cccs2)cc1 [Compound 1463]
The “Percent Metabolic Activity of Fibroblasts Exposed To Various C-Proteinase Inhibitors Relative to Untreated Fibroblasts” value of the first is lower: 92.8% for the first, 110.0% for the second.

First: O=C(CCN(CCc1cccs1)S(=O)(=O)c1ccc(Br)s1)NO [Compound 1417]
Second: O=C(CCN(CCc1cccs1)S(=O)(=O)c1cccs1)NO [Compound 1425]
The “Percent Metabolic Activity of Fibroblasts Exposed To Various C-Proteinase Inhibitors Relative to Untreated Fibroblasts” value of the first is higher: 120.3% for the first, 109.5% for the second.

Compared with `O=C(CCN(CCc1cccs1)S(=O)(=O)c1ccc(S(=O)(=O)c2ccccc2)s1)NO` [Compound 1419], `N/C(=N\O)c1cccc(S(=O)(=O)N(CCC(=O)NO)CCc2cccs2)c1` [Compound 1457] is higher in “Percent Metabolic Activity of Fibroblasts Exposed To Various C-Proteinase Inhibitors Relative to Untreated Fibroblasts” value: 104.7% for the first, 107.4% for the second.

Going from `COc1ccc(CCN(CCC(=O)NO)S(=O)(=O)c2cccc(/C(N)=N/O)c2)cc1` [Compound 1456] to `N/C(=N\O)c1cccc(S(=O)(=O)N(CCC(=O)NO)Cc2ccc3c(c2)OCO3)c1` [Compound 1458], the “Percent Metabolic Activity of Fibroblasts Exposed To Various C-Proteinase Inhibitors Relative to Untreated Fibroblasts” value rises from 106.8% to 111.0%.

For `CS(=O)(=O)c1ccc(S(=O)(=O)N(CCC(=O)NO)Cc2ccc3c(c2)OCO3)cc1` [Compound 1464], the “Percent Metabolic Activity of Fibroblasts Exposed To Various C-Proteinase Inhibitors Relative to Untreated Fibroblasts” value was 111.0%.
